Measurements published in patent US20060069132A1, “Azolecarboxamide herbicides” (priority 2004, published 2006).

Columns and labels:
[1] = tested on: rice; test: Test B pre-/postemergence herbicide test; assay type: in vivo, Oryza sativa; conditions: 0 = no effect, 100 = complete control, preemergence; for Rice plant response rating (0 to 100 scale): 125 g ai/ha; for Plant response rating, Rice: 500 g ai/ha, visual rating
How it was run: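 Plants compared with untreated controls 13–15 days post-treatment and given a visual 0–100 injury score. Applications: preemergence to seeds; postemergence at 1- to 4-leaf (2–18 cm); paddy species flooded, 2-leaf stage. Vehicle non-phytotoxic, surfactant included.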

[2] = tested on: large crabgrass; test: Test B pre-/postemergence herbicide test; assay type: in vivo, Digitaria sanguinalis
How it was run: (§1)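 Evaluation is visual, comparing treated with control plants on a scale where 0 means no effect and 100 means full control. Treatments were preemergence, or postemergence on seedlings 2–18 cm tall, and held 13–15 days in the greenhouse.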

[3] = tested on: cocklebur; test: Test B pre-/postemergence herbicide test; assay type: in vivo, Xanthium strumarium
How it was run: (§2)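 Seeds were planted and treated preemergence with compounds formulated in a non-phytotoxic solvent mixture containing surfactant, while plants at the 1- to 4-leaf stage (2 to 18 cm) received postemergence sprays. Flooded paddy plants were grown to the 2-leaf stage. After 13 to 15 days in a greenhouse, injury was visually rated 0–100 against untreated controls.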

[4] = tested on: pigweed; test: Test B pre-/postemergence herbicide test; assay type: in vivo, Amaranthus retroflexus; conditions: for Pigweed plant response rating (0 to 100 scale) / Plant response rating, Pigweed: 0 = no effect, 100 = complete control, preemergence; for Pigweed plant response rating: postemergence
How it was run: as §1

[5] = tested on: lambsquarters; test: Test B pre-/postemergence herbicide test; assay type: in vivo, Chenopodium album
How it was run: as §1

[6] = tested on: blackgrass; test: Test B postemergence herbicide test; assay type: in vivo, Alopecurus myosuroides
How it was run: (§3)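 Postemergence plants were sprayed with formulated test chemicals at 2 to 18 cm height (1- to 4-leaf stage); paddy species were grown to the 2-leaf stage. After 13 to 15 days in a greenhouse, injury was rated visually against untreated controls on a 0–100 scale (0 = no effect, 100 = complete control).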

[7] = tested on: giant foxtail; test: Test B pre-/postemergence herbicide test; assay type: in vivo, Setaria faberi
How it was run: as §1

[8] = tested on: rice; test: Test C flooded paddy test; assay type: in vivo, Oryza sativa; conditions: for Plant response rating, Rice: 500 g ai/ha, visual rating after 12 to 14 days
How it was run: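 Plants were grown to the 1- to 4-leaf stage (2–18 cm) and then treated postemergence, or grown to the 2-leaf stage for the flooded paddy test. They were held in a greenhouse for 12 to 14 days and then scored by eye against controls, where 0 is no effect and 100 is complete control.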

[9] = tested on: wheat; test: Test B postemergence herbicide test; assay type: in vivo, Triticum aestivum; set-up: key to Wheat plant response rating: 0 = no effect, 100 = complete control
How it was run: (§4)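 Each value is a visual 0–100 response rating taken against controls 13 to 15 days after treatment in the greenhouse. Plants received formulated chemical postemergence at the 1- to 4-leaf stage or, in flooded paddy, at the 2-leaf stage.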

[10] = tested on: barnyardgrass; test: Test C flooded paddy test; assay type: in vivo, Echinochloa crus-galli; conditions: for Plant response rating, Barnyardgrass: 500 g ai/ha, visual rating after 12 to 14 days
How it was run: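 Ratings (0 = no effect, 100 = complete control) come from visual comparison with untreated plants after 12 to 14 days in the greenhouse. Treatment was postemergence at the 1- to 4-leaf stage (2–18 cm), or at the 2-leaf stage for the flooded paddy barnyardgrass.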

[11] = tested on: smallflower umbrella sedge; test: Test C flooded paddy test; assay type: in vivo, Cyperus difformis; conditions: for Plant response rating, Sedge, Umbrella: 500 g ai/ha, visual rating after 12 to 14 days
[12] = tested on: Surinam grass; test: Test B pre-/postemergence herbicide test; assay type: in vivo, Urochloa decumbens
How it was run: as §1

[13] = tested on: barnyardgrass; test: Test B flooded paddy test; assay type: in vivo, Echinochloa crus-galli; conditions: 1000 g ai/ha, scale 0 to 100 (0 no effect, 100 complete control)
How it was run: as §3

[14] = tested on: rice; test: Test B flooded paddy test; assay type: in vivo, Oryza sativa; conditions: 1000 g ai/ha, scale 0 to 100 (0 no effect, 100 complete control)
How it was run: as §4

[15] = tested on: ducksalad; test: Test C flooded paddy test; assay type: in vivo, Heteranthera limosa; conditions: for Plant response rating, Ducksalad: 500 g ai/ha, visual rating after 12 to 14 days
[16] = tested on: velvetleaf; test: Test B pre-/postemergence herbicide test; assay type: in vivo, Abutilon theophrasti
How it was run: as §1

[17] = tested on: ducksalad; test: Test B flooded paddy test; assay type: in vivo, Heteranthera limosa; conditions: 1000 g ai/ha, scale 0 to 100 (0 no effect, 100 complete control)
How it was run: as §3

[18] = tested on: corn; test: Test B pre-/postemergence herbicide test; assay type: in vivo, Zea mays
How it was run: as §1

[19] = tested on: wild oat; test: Test B postemergence herbicide test; assay type: in vivo, Avena fatua
How it was run: as §4

[20] = tested on: small flower umbrella sedge; test: Test B flooded paddy test; assay type: in vivo, Cyperus difformis; conditions: 1000 g ai/ha, scale 0 to 100 (0 no effect, 100 complete control)
How it was run: as §3

[21] = tested on: morningglory; test: Test B pre-/postemergence herbicide test; assay type: in vivo, Ipomoea coccinea
How it was run: as §2

[22] = tested on: barnyardgrass; test: Test B pre-/postemergence herbicide test; assay type: in vivo, Echinochloa crus-galli; conditions: for Barnyardgrass plant response rating (0 to 100 scale) / Plant response rating, Barnyardgrass: 0 = no effect, 100 = complete control, preemergence; for Barnyardgrass plant response rating: postemergence
How it was run: as §2

[23] = 125 g ai/ha; 0 = no effect, 100 = complete control; preemergence
[24] = 125 g ai/ha; visual rating, scale 0 (no effect) to 100 (complete control); postemergence
[25] = 500 g ai/ha; visual rating, 0 = no effect, 100 = complete control; preemergence
[26] = postemergence, 500 g ai/ha; scale 0 to 100, 0 is no effect, 100 is complete control
[27] = 125 g ai/ha, visual rating, scale 0 (no effect) to 100 (complete control)
[28] = 500 g ai/ha, scale 0 to 100, 0 is no effect, 100 is complete control
[29] = 125 g ai/ha, scale 0 to 100 (0 no effect, 100 complete control)
[30] = 250 g ai/ha, scale of 0 to 100, 0 is no effect, 100 is complete control
[31] = scale 0 to 100 (0 no effect, 100 complete control)
[32] = 62 g ai/ha, scale 0 to 100 (0 no effect, 100 complete control)
[33] = postemergence, 125 g ai/ha; visual rating, scale 0 (no effect) to 100 (complete control)
[34] = postemergence, 500 g ai/ha; visual rating, scale 0 (no effect) to 100 (complete control)

C#CCNC(=O)c1ccc(F)c(NC(=O)c2cc(C3(C)CC3)nn2CC)c1 [Compound 302]
Rice plant response rating (0 to 100 scale) [1]: 0
Plant response rating, Rice [1]: 10
Crabgrass, Large plant response rating (0 to 100 scale) [2, 23]: 70
Crabgrass, Large plant response rating [2, 24]: 0
Plant response rating, Crabgrass, Large [2, 25]: 100
Crabgrass, Large plant response rating [2, 26]: 10
Cocklebur plant response rating (0 to 100 scale) [3, 23]: 0
Cocklebur plant response rating [3, 24]: 10
Plant response rating, Cocklebur [3, 25]: 0
Cocklebur plant response rating [3, 26]: 10
Pigweed plant response rating (0 to 100 scale) ([4]; 125 g ai/ha): 100
Pigweed plant response rating [4, 27]: 80
Plant response rating, Pigweed ([4]; 500 g ai/ha, visual rating): 100
Pigweed plant response rating [4, 28]: 90
Lambsquarters plant response rating (0 to 100 scale) [5, 23]: 0
Lambsquarters plant response rating [5, 24]: 60
Plant response rating, Lambsquarters [5, 25]: 100
Lambsquarters plant response rating [5, 26]: 70
Blackgrass plant response rating [6, 24]: 10
Blackgrass plant response rating [6, 26]: 20
Foxtail, Giant plant response rating (0 to 100 scale) [7, 23]: 0
Foxtail, Giant plant response rating [7, 24]: 0
Plant response rating, Foxtail, Giant [7, 25]: 30
Foxtail, Giant plant response rating [7, 26]: 20
Rice plant response rating ([8]; 62 g ai/ha, scale 0 to 100): 0
Rice plant response rating [8, 29]: 0
Rice plant response rating [8, 30]: 0
Plant response rating, Rice [8, 31]: 55
Wheat plant response rating [9, 24]: 0
Wheat plant response rating [9, 26]: 10
Barnyardgrass plant response rating [10, 32]: 0
Barnyardgrass plant response rating [10, 29]: 0
Barnyardgrass plant response rating [10, 30]: 10
Plant response rating, Barnyardgrass [10, 31]: 35
Sedge, Umbrella plant response rating ([11]; 62 g ai/ha, scale 0 to 100): 15
Sedge, Umbrella plant response rating [11, 29]: 50
Sedge, Umbrella plant response rating [11, 30]: 75
Plant response rating, Sedge, Umbrella [11, 31]: 85
Surinam Grass plant response rating (0 to 100 scale) [12, 23]: 10
Surinam Grass plant response rating [12, 24]: 0
Plant response rating, Surinam Grass [12, 25]: 30
Surinam Grass plant response rating [12, 26]: 10
Barnyardgrass plant response rating [13]: 70
Rice plant response rating [14]: 70
Ducksalad plant response rating ([15]; 62 g ai/ha, scale 0 to 100): 0
Ducksalad plant response rating [15, 29]: 25
Ducksalad plant response rating [15, 30]: 30
Plant response rating, Ducksalad [15, 31]: 85
Velvetleaf plant response rating [16, 24]: 10
Plant response rating, Velvetleaf [16, 25]: 80
Velvetleaf plant response rating [16, 26]: 10
Ducksalad plant response rating [17]: 90
Corn plant response rating (0 to 100 scale) [18, 23]: 0
Corn plant response rating [18, 24]: 10
Plant response rating, Corn [18, 25]: 10
Corn plant response rating [18, 26]: 50
Oat, Wild plant response rating [19, 24]: 0
Oat, Wild plant response rating [19, 26]: 10
Sedge, Umbrella plant response rating [20]: 80
Morningglory plant response rating (0 to 100 scale) [21, 23]: 0
Morningglory plant response rating [21, 24]: 30
Plant response rating, Morningglory [21, 25]: 10
Morningglory plant response rating [21, 26]: 60
Barnyardgrass plant response rating (0 to 100 scale) ([22]; 125 g ai/ha): 0
Barnyardgrass plant response rating [22, 27]: 10
Plant response rating, Barnyardgrass ([22]; 500 g ai/ha, visual rating): 60
Barnyardgrass plant response rating [22, 28]: 40

CCc1cn(C(C)(C)C)nc1C(=O)Nc1cc(C(=O)N(C)C)ccn1 [Compound 232]
Rice plant response rating (0 to 100 scale) [1]: 10
Plant response rating, Rice [1]: 50
Crabgrass, Large plant response rating (0 to 100 scale) [2, 23]: 60
Plant response rating, Crabgrass, Large [2, 25]: 100
Crabgrass, Large plant response rating [2, 33]: 10
Crabgrass, Large plant response rating [2, 34]: 20
Cocklebur plant response rating (0 to 100 scale) [3, 23]: 0
Plant response rating, Cocklebur [3, 25]: 0
Cocklebur plant response rating [3, 33]: 10
Cocklebur plant response rating [3, 34]: 30
Pigweed plant response rating (0 to 100 scale) ([4]; 125 g ai/ha): 90
Plant response rating, Pigweed ([4]; 500 g ai/ha, visual rating): 90
Pigweed plant response rating ([4]; 500 g ai/ha, visual rating, scale 0 (no effect) to 100 (complete control)): 40
Lambsquarters plant response rating (0 to 100 scale) [5, 23]: 80
Plant response rating, Lambsquarters [5, 25]: 90
Lambsquarters plant response rating [5, 33]: 50
Lambsquarters plant response rating [5, 34]: 60
Blackgrass plant response rating [6, 33]: 0
Blackgrass plant response rating [6, 34]: 0
Foxtail, Giant plant response rating (0 to 100 scale) [7, 23]: 0
Plant response rating, Foxtail, Giant [7, 25]: 30
Foxtail, Giant plant response rating [7, 33]: 10
Foxtail, Giant plant response rating [7, 34]: 30
Rice plant response rating [8, 32]: 0
Rice plant response rating [8, 29]: 20
Rice plant response rating [8, 30]: 35
Plant response rating, Rice [8, 31]: 60
Wheat plant response rating [9, 33]: 0
Wheat plant response rating [9, 34]: 0
Barnyardgrass plant response rating [10, 32]: 0
Barnyardgrass plant response rating [10, 29]: 0
Barnyardgrass plant response rating [10, 30]: 0
Plant response rating, Barnyardgrass [10, 31]: 15
Sedge, Umbrella plant response rating [11, 32]: 0
Sedge, Umbrella plant response rating [11, 29]: 35
Sedge, Umbrella plant response rating [11, 30]: 55
Plant response rating, Sedge, Umbrella [11, 31]: 85
Surinam Grass plant response rating (0 to 100 scale) [12, 23]: 0
Plant response rating, Surinam Grass [12, 25]: 30
Surinam Grass plant response rating [12, 33]: 10
Surinam Grass plant response rating [12, 34]: 20
Barnyardgrass plant response rating [13]: 40
Rice plant response rating [14]: 50
Ducksalad plant response rating [15, 32]: 0
Ducksalad plant response rating [15, 29]: 0
Ducksalad plant response rating [15, 30]: 30
Plant response rating, Ducksalad [15, 31]: 80
Velvetleaf plant response rating (0 to 100 scale) [16, 23]: 20
Plant response rating, Velvetleaf [16, 25]: 40
Velvetleaf plant response rating [16, 33]: 30
Velvetleaf plant response rating [16, 34]: 40
Ducksalad plant response rating [17]: 80
Corn plant response rating (0 to 100 scale) [18, 23]: 0
Plant response rating, Corn [18, 25]: 0
Corn plant response rating [18, 33]: 10
Corn plant response rating [18, 34]: 20
Oat, Wild plant response rating [19, 33]: 0
Oat, Wild plant response rating [19, 34]: 0
Sedge, Umbrella plant response rating [20]: 90
Morningglory plant response rating (0 to 100 scale) [21, 23]: 10
Plant response rating, Morningglory [21, 25]: 20
Morningglory plant response rating [21, 33]: 30
Morningglory plant response rating [21, 34]: 70
Barnyardgrass plant response rating (0 to 100 scale) ([22]; 125 g ai/ha): 20
Plant response rating, Barnyardgrass ([22]; 500 g ai/ha, visual rating): 60
